± gives the uncertainty stated by the source.
Assay: xn = mol fraction of the nth substance listed

NCCCN + OCCOCCOCCO
viscosity [mPa·s], 100 kPa
Settings	293.15 K	298.15 K	303.15 K	308.15 K	313.15 K	318.15 K
x2 = 0.0253	2.31 ± 0.03	2.01 ± 0.03	–	1.64 ± 0.03	1.46 ± 0.03	1.23 ± 0.03
x2 = 0.052	2.82 ± 0.03	2.42 ± 0.03	2.1 ± 0.03	1.9 ± 0.03	1.74 ± 0.03	1.45 ± 0.03
x2 = 0.0801	3.56 ± 0.04	3.07 ± 0.03	2.62 ± 0.03	2.28 ± 0.03	2.06 ± 0.03	1.69 ± 0.03
x2 = 0.1098	4.41 ± 0.04	3.74 ± 0.04	3.15 ± 0.03	2.72 ± 0.03	2.47 ± 0.03	2.02 ± 0.03
x2 = 0.1412	5.52 ± 0.04	4.68 ± 0.04	3.91 ± 0.04	3.33 ± 0.04	3 ± 0.03	2.43 ± 0.03
x2 = 0.1746	7.09 ± 0.05	5.97 ± 0.05	4.92 ± 0.04	4.16 ± 0.04	3.72 ± 0.04	2.99 ± 0.03
x2 = 0.21	8.97 ± 0.06	7.46 ± 0.05	6.09 ± 0.05	5.1 ± 0.04	4.54 ± 0.04	3.69 ± 0.04
x2 = 0.2476	11.9 ± 0.1	9.77 ± 0.06	7.87 ± 0.05	6.52 ± 0.05	5.7 ± 0.04	4.51 ± 0.04
x2 = 0.2877	15.8 ± 0.1	12.8 ± 0.1	10.1 ± 0.1	8.27 ± 0.05	7.16 ± 0.05	5.6 ± 0.04
x2 = 0.3305	21.6 ± 0.1	17.1 ± 0.1	13.3 ± 0.1	10.7 ± 0.1	9.13 ± 0.06	7.02 ± 0.05
x2 = 0.3762	29.3 ± 0.2	22.8 ± 0.1	17.5 ± 0.1	13.8 ± 0.1	11.6 ± 0.1	8.8 ± 0.06
x2 = 0.4254	38.8 ± 0.2	29.7 ± 0.2	22.5 ± 0.1	17.5 ± 0.1	14.6 ± 0.1	11 ± 0.1
x2 = 0.4782	50.2 ± 0.2	37.8 ± 0.2	28.3 ± 0.2	21.7 ± 0.1	17.9 ± 0.1	13.3 ± 0.1
x2 = 0.5352	59.8 ± 0.3	44.5 ± 0.2	33.2 ± 0.2	25.5 ± 0.1	20.8 ± 0.1	15.2 ± 0.1
x2 = 0.5969	70.2 ± 0.5	52.2 ± 0.2	38.6 ± 0.2	29.2 ± 0.2	23.7 ± 0.1	17.3 ± 0.1
x2 = 0.6638	72.7 ± 0.5	54.6 ± 0.2	40.6 ± 0.2	30.9 ± 0.2	25.2 ± 0.1	18.5 ± 0.1
x2 = 0.7366	72.1 ± 0.5	54.3 ± 0.2	40.7 ± 0.2	31.2 ± 0.2	25.7 ± 0.1	19.1 ± 0.1
x2 = 0.8162	66.3 ± 0.4	50.6 ± 0.2	38.4 ± 0.2	29.7 ± 0.2	24.7 ± 0.1	18.6 ± 0.1
x2 = 0.9036	57.9 ± 0.2	44.7 ± 0.2	34.3 ± 0.2	26.8 ± 0.1	22.5 ± 0.1	17.2 ± 0.1

NCCCN + O
viscosity [mPa·s]
Settings	303.15 K	308.15 K	313.15 K	318.15 K	323.15 K
101 kPa, x1 = 0.05	1.58 ± 0.01	1.38 ± 0.009	1.227 ± 0.008	1.097 ± 0.0072	–
101 kPa, x1 = 0.0966	2.754 ± 0.017	2.355 ± 0.015	2.03 ± 0.013	–	–
101 kPa, x1 = 0.1458	4.36 ± 0.027	3.619 ± 0.023	3.031 ± 0.019	–	–
101 kPa, x1 = 0.199	6.289 ± 0.037	5.088 ± 0.032	4.188 ± 0.026	–	–
101 kPa, x1 = 0.2473	7.568 ± 0.044	6.055 ± 0.037	4.93 ± 0.031	–	–
101 kPa, x1 = 0.2961	8.219 ± 0.048	6.535 ± 0.04	5.313 ± 0.033	–	–
101 kPa, x1 = 0.3465	7.991 ± 0.047	6.401 ± 0.04	5.22 ± 0.033	–	–
101 kPa, x1 = 0.3974	7.438 ± 0.045	6.022 ± 0.038	4.946 ± 0.032	–	–
101 kPa, x1 = 0.4955	5.878 ± 0.038	4.832 ± 0.032	4.038 ± 0.027	–	–
101 kPa, x1 = 0.5995	4.307 ± 0.029	3.644 ± 0.025	3.127 ± 0.021	–	–
101 kPa, x1 = 0.6969	3.224 ± 0.023	2.779 ± 0.02	2.419 ± 0.017	–	–
101 kPa, x1 = 0.8006	2.501 ± 0.018	2.177 ± 0.016	1.921 ± 0.014	–	–
101 kPa, x1 = 0.8936	1.997 ± 0.015	1.762 ± 0.013	1.573 ± 0.012	–	–
101.33 kPa, x1 = 0.0518	1.637 ± 0.011	1.437 ± 0.01	1.267 ± 0.009	1.127 ± 0.008	1.008 ± 0.007
101.33 kPa, x1 = 0.1	2.991 ± 0.021	2.534 ± 0.018	2.174 ± 0.015	1.887 ± 0.013	1.65 ± 0.012
101.33 kPa, x1 = 0.1498	4.882 ± 0.035	4.012 ± 0.029	3.345 ± 0.024	2.827 ± 0.02	2.417 ± 0.018
101.33 kPa, x1 = 0.2004	6.762 ± 0.047	5.446 ± 0.04	4.467 ± 0.033	3.714 ± 0.027	3.132 ± 0.023
101.33 kPa, x1 = 0.2498	7.872 ± 0.056	6.309 ± 0.047	5.128 ± 0.039	4.236 ± 0.032	3.548 ± 0.027
101.33 kPa, x1 = 0.2734	8.088 ± 0.059	6.473 ± 0.048	5.268 ± 0.04	4.351 ± 0.033	3.646 ± 0.028
101.33 kPa, x1 = 0.2984	8.108 ± 0.06	6.502 ± 0.049	5.297 ± 0.041	4.379 ± 0.034	3.662 ± 0.029
101.33 kPa, x1 = 0.3248	7.918 ± 0.06	6.364 ± 0.049	5.199 ± 0.041	4.307 ± 0.034	3.619 ± 0.029
101.33 kPa, x1 = 0.3502	7.614 ± 0.059	6.155 ± 0.048	5.027 ± 0.04	4.189 ± 0.033	3.518 ± 0.028
101.33 kPa, x1 = 0.3766	7.121 ± 0.056	5.774 ± 0.047	4.754 ± 0.039	3.972 ± 0.032	3.354 ± 0.027
101.33 kPa, x1 = 0.4041	6.681 ± 0.054	5.464 ± 0.045	4.509 ± 0.037	3.787 ± 0.031	3.211 ± 0.027
101.33 kPa, x1 = 0.4467	5.911 ± 0.05	4.871 ± 0.042	4.068 ± 0.035	3.445 ± 0.029	2.935 ± 0.025

From the CheMixHub viscosity set
